From patent US8680042B2, “Methods of treating sickle cell anemia-related conditions with MK-801 or memantine” (Universität Zürich Prorektorat MNW, priority 2009, dated 2014)

Molecular target: T1, NMDA receptor in erythrocytes (Homo sapiens, UniProt Q05586)
T1 construct: Potassium and calcium fluxes through the NMDA receptor in erythrocytes of healthy donors (C) and patients with sickle cell anemia; endogenous in cells; host or cells: freshly isolated human erythrocytes (HbSS patients and healthy donors)
Assay: Unidirectional K+ (86Rb) and Ca2+ (45Ca) fluxes via the cation channel of the NMDA receptor, radioactive tracer kinetics
Type: cell-based
Conditions: for NMDA- and PGE2-sensitive increase in fluxes: stimulated by NMDA (100 μM) or prostaglandine E2 (2 μM), blocker added
Experimental: FIGS. 2A and 2B: Potassium and calcium fluxes through the NMDA receptor in erythrocytes of healthy donors (C) and patients with sickle cell anemia (H). 2A: Unidirectional K^+ influx measured in chloride-free Na-methane sulfate medium in the presence of 100 μM ouabain, the inhibitor of […]. Conditions corresponding to the numbers at the X axis: (1) control; (2) 50 μM memantine chloride (Sigma-Aldhdge); (3) 100 μM NMDA; (4) NMDA+memantine chloride; (5) 2 μM prostaglandine E2 (PGE2); (6) PGE2+memantine chloride. * denotes p<0.05 compared to the corresponding values in healthy donor's erythrocytes, # stands for p<0.05 compared to the corresponding non-treated control. Data are means±SEM for 6-7 individuals. 2B: Unidirectional Ca^2+ influx in erythrocytes of a single HbSS patient measured on 3 different occasions and in three healthy donors. Conditions indicated in numbers at the X axis are: (1) non-treated control; (2) 100 μM NMDA; (3) 100 μM NMDA and 50 μM MK-801. * denotes p<0.05 compared to the corresponding healthy donors' samples.
The following experiments were conducted using fresh-isolated human erythrocytes of HbSS patients and healthy subjects.
Fluxes via the nonselective cation channel of the NMDA receptor were assessed using radioactive tracer kinetics. 86Rb was used as a radioactive tracer for K^+ and 45Ca as a tracer for Ca^2+. Fluxes through the red cell membrane were measures in the medium containing (mM) 145 Na-methane sulfate, 4 K-gluconate, 1 Ca-gluconate, 10 sucrose, 10 glucose and 10 HEPES-Tris (pH 7.4) in the presence of 100 μM L-arginine and 100 μM ouabain. Details of the flux measurement may be found elsewhere (e.g. Bogdanova et al., J Membr Biol. 2003; 195(1):33-42).

Structure (SMILES)	NMDA- and PGE2-sensitive increase in fluxes	other results
CCCCC[C@H](O)/C=C/[C@H]1[C@H](O)CC(=O)[C@@H]1C/C=C\CCCC(=O)O [prostaglandine E2]	–	Fluxes of both cations (K+ and Ca2+) (agonist 2 μM): further stimulated
C[C@]12N[C@H](Cc3ccccc31)c1ccccc12 [MK-801, Dizocilpine]	could be blocked	–
CN[C@H](CC(=O)O)C(=O)O [NMDA, N-methyl D-aspartate]	–	Fluxes of both cations (K+ and Ca2+) (agonist 100 μM): further stimulated
CC12CC3CC(C)(C1)CC(N)(C3)C2 [memantine, Memantine]	could be blocked	–
